Values of other authors in patent US9096579B2, “Amino-indolyl-substituted imidazolyl-pyrimidines and their use as medicaments” (Boehringer Ingelheim International GmbH, priority 2012, dated 2015).

What was measured:
[1] = tested on: atherosclerotic plaque size; conditions: murine model of atherosclerosis
[2] = tested on: platelet counts in patients with ITP; conditions: single center open label study

COc1cc(Nc2ncc(F)c(Nc3ccc4c(n3)N(COP(=O)(O)O)C(=O)C(C)(C)O4)n2)cc(OC)c1OC [R788 (R406)]
atherosclerotic plaque size [1]: reduced atherosclerotic plaque size
platelet counts [2]: improved platelet counts
